Experimental data as given in patent publication US11485714B2, “Hydroxyethylamine-based piperazine compounds, and methods of producing and using the same for treating disease” (National Institute of Immunology, priority 2020, dated 2022).
pIC50: −log10 of the molar value.

Experiments:
[1] = test system: P. berghei ANKA sporozoites; assay: Liver-stage infection in mice by mosquito bites, treatment and survival; type: in vivo
Procedure: [1] Liver-stage infection in mice, treatment and survival assay: GFP-expressing P. berghei ANKA were grown in Anopheles stephensi mosquitoes in the insectary at National Institute of Immunology (New Delhi, India). Sporozoite count per salivary gland and infectivity was determined before the experimental infection of mice by the mosquito bites. Briefly, anaesthetized mice were exposed to a cage of sporozoite carrying starved mosquitoes (100 mosquito/5 mouse) for 15 minutes with intermittent disturbing of mosquito every 2-3 minute in order to encourage biting and injection of more sporozoite. Biting was done at 22+1° C. and dark condition maintained in an incubator. First dose (10 mg/Kg) was given 24 hours before the infection, second dose was given two hours post sporozoite challenge (biting) drug was given intraperitonially (I.P). Remaining dosages were given 24 h post challenge.
[2] For calculating parasite load, liver of experimental mice were isolated 50 h post infection. Mice were anesthetized, abdominal area sterilized with 70% ethanol and liver dissected out. Liver was homogenized in precold denaturating solution. RNAs were isolated from the homogenized sample followed by Real Time polymerase chain reaction (PCR).
Prompted by the notable in vitro liver stage activity, mice were infected with sporozoites through mosquito bites to test the efficacy of Compound I on liver stage infection in mouse models. The infected mice were treated with fixed dose of 10 mg/kg for three days. Liver stage P. berghei parasites mature into merozoites in about 55 hours. […] To understand the pre-patient period and delay, the starting of blood stage parasite infection was monitored after three days post challenge by observing Giemsa stained smears. […] Single day delay in blood stage infection corresponds to about 10-fold decrease in liver parasite burden. Experimental mice were kept for survival studies after treatment with Compound 1 (10 mg/kg) and death day was noted.
The percentage of parasitemia remained low until day 7 post-sporozoite challenges.

[2] = test system: human T-type calcium channel; assay: Whole cell patch clamp in HEK 293 cells; type: cell-based; settings: increasing concentrations up to 1 microMolar
Procedure: These currents were measured with the Patch clamp method in the “whole cell” configuration. In this configuration, the total currents that pass through all the calcium channels present in the plasma membrane are measured. In this case, it is measured in HEK cells, which constitutively express the human T type Calcium channel. In this case, the internal solutions contain the Cs+ instead of K+, thus blocking the K+ channels and the external one contains TEA an external channel blocker of K. This way the only currents that can develop in these cells are that of T type Calcium channels. This calcium channel is a voltage dependent channel, which is characterized by activating at membrane potentials that are more negative than L-type channels and by rapidly inactivating. […] This is the characteristic of the human T type calcium channel.
Human T-type calcium channel currents were measured with the Patch clamp on the “whole cell” configuration in HEK cells constitutively expressing human T type Calcium channel.

[3] = test system: Leishmania donovani amastigotes; assay: Anti-leishmania activity, amastigotes in THP-1 macrophages; type: cell-based; settings: 96 hours, read-out: IC50, L. donovani amastigotes in THP-1 macrophages
Procedure: To test the anti-leishmania activity, Leishmania donovani strains: L. donovani reporter expressing red fluorescent protein, DsRed2 transgenic L. donovani (LV82)15, obtained from Ohio State University. Columbus (OSUMC). Extracellular (Promastigotes) L. donovani parasites were maintained in M199 media supplemented with 15% heat-inactivated fetal bovine serum (HI-FBS), 20 mM HEPES, 100 U/ml of penicillin and streptomycin at pH 5.5 with 5% CO2. Cultures were constantly maintained in a 25° C. incubator. Anti-leishmanial activity was determined by incubating exponentially growing log-phase promastigotes with THP-1 macrophage for 24 h to infect. Following this, plates were washed to remove the uninfected promastigotes, STD drug and Calxinin were treated 96-well plates for 96 hours. Miltefosine and paromomycin, standard medications, serve as a positive control at equivalent concentrations. Morphological alterations in the amastigotes following treatment with drugs, were examined by fluorescent microscopy. Images were analyzed for percent parasite survival upon drug treatment and enumerated the IC50. The inhibition curve of Compound I was very similar to Amphotericin B (AmpB) and lower than the 2 standard drugs.

[4] = test system: L. donavani infected THP1 cells; assay: Calcium levels in L. donavani infected THP1 cells (Fluo4-AM); type: cell-based, Leishmania donovani; settings: 10 μM, within few seconds, preliminary
Procedure: A macrophage differentiated cell culture of THP1 cell lines by phorbol 12-myristate 13-acetate (PMA) concentration of 15 ng/ml was established on 15 mm glass bottom petri dishes. The confluent cells were infected with leishmania promastigotes in 1:5 ratio. The infected macrophages were washed after 24 hr.
Incubation was conducted to remove uninfecting promastigotes with same RPMI medium with 6% FCS. The culture was then washed twice in HEPES-buffered saline solution (HBSS) (in mM: 25 HEPES, 121 NaCl, 5 NaHCO3, 4.7 KCl, 1.2 KH2PO4, 1.2 MgSO4, 2.0 CaCl2), 10 glucose, 0.04 probenecid, and 0.25% (w/v) fatty acid-free BSA, pH 7.4). The culture was switched to the same buffer with Fluo4-AM (1×), Hoechst 33258 (1×) and charged for 40 minutes. The cells were then washed in same buffer without dye and mounted on the stage of inverted LSM 510 Zeiss, […], 1.4 NA, oil-immersion objective, zoom 4-6, z-stacks of […] thin optical sections, 4-8× average, 2,000×2,000 pixel window, range indicator used for optimized illumination, and 488, 543, 633 laser lines used for excitation. Compounds Miltefosine, Amphotericin B, calxinin and DMSO were added during time-course experiments. Preliminary results of Amastigotes treated with DMSO (negative control) and treated Compound 1 (10 μM) were generated.

Which results are given for `NC(Cc1ccccc1)C(O)CN1CCN(Cc2ccc(C(F)(F)F)cc2)CC1` (stereo not shown) [Compound I]?
Mean survival time (MST) ([1]; 10 mg/kg): about 9 days; decrease in liver parasite burden corresponding to the delay ([1]; 10 mg/kg): about 10 fold; delay in the prepatent period ([1]; 10 mg/kg): One day's delay; inhibition of liver stage infection in mice ([1]; 10 mg/kg for three days, I.P): 30%; activity of the Calcium T Channel (current amplitude, voltage dependence of activation) [2]: No difference; pIC50 [3]: 7.10; calcium levels of Macrophage+L. donavani [4]: changes in the calcium levels
